“And” between values parts separate entries of the source, which are not always exact repeats. Identical values can stand only once. Toxic doses and inconclusive results are not listed.
Tested on: L1210 leukemia ip in BDF1 mice, survival T/C
Assay: NCI In Vivo Anticancer Drug Screen. Data for tumor model L1210 Leukemia (intraperitoneal) in B6D2F1 (BDF1) mice
Settings: endpoint: mean survival time, higher = longer survival
Summary of the method: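 In this screen, tumor-bearing mice given compound are compared to those given vehicle, and their survival values are reported as a treated-to-control quotient.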

[1] = dose: 400.0 mg/kg/injection, schedule: Q01DX001 (ip), vehicle: carboxymethylcellulose (CMC)
[2] = dose: 100.0 mg/kg/injection, schedule: Q01DX001 (ip), vehicle: carboxymethylcellulose (CMC)
[3] = dose: 200.0 mg/kg/injection, schedule: Q01DX001 (ip), vehicle: carboxymethylcellulose (CMC)
[4] = dose: 200.0 mg/kg/injection, schedule: Q04DX003 (ip), vehicle: saline with Tween-80
[5] = dose: 100.0 mg/kg/injection, schedule: Q04DX002 (ip), vehicle: Klucel (hydroxypropylcellulose) (HPC)
[6] = dose: 200.0 mg/kg/injection, schedule: Q04DX002 (ip), vehicle: Klucel (hydroxypropylcellulose) (HPC)
[7] = dose: 400.0 mg/kg/injection, schedule: Q04DX002 (ip), vehicle: Klucel (hydroxypropylcellulose) (HPC)
[8] = dose: 50.0 mg/kg/injection, schedule: Q01DX009 (ip), vehicle: saline with Tween-80
[9] = dose: 100.0 mg/kg/injection, schedule: Q01DX009 (ip), vehicle: saline with Tween-80
[10] = dose: 200.0 mg/kg/injection, schedule: Q01DX009 (ip), vehicle: saline with Tween-80
[11] = dose: 100.0 mg/kg/injection, schedule: Q01DX001 (ip), vehicle: saline with Tween-80
[12] = dose: 200.0 mg/kg/injection, schedule: Q01DX001 (ip), vehicle: saline with Tween-80
[13] = dose: 400.0 mg/kg/injection, schedule: Q01DX001 (ip), vehicle: saline with Tween-80
[14] = dose: 100.0 mg/kg/injection, schedule: Q04DX002 (ip), vehicle: saline with Tween-80
[15] = dose: 200.0 mg/kg/injection, schedule: Q04DX002 (ip), vehicle: saline with Tween-80
[16] = dose: 400.0 mg/kg/injection, schedule: Q04DX002 (ip), vehicle: saline with Tween-80
[17] = dose: 100.0 mg/kg/injection, schedule: Q04DX003 (ip), vehicle: Klucel (hydroxypropylcellulose) (HPC)
[18] = dose: 200.0 mg/kg/injection, schedule: Q04DX003 (ip), vehicle: Klucel (hydroxypropylcellulose) (HPC)
[19] = dose: 400.0 mg/kg/injection, schedule: Q04DX003 (ip), vehicle: Klucel (hydroxypropylcellulose) (HPC)

CC(C)CC(N)C(=O)NC1(C(=O)O)C2CC3CC(C2)CC1C3 (stereo not given)
T/C (dose: 17.5 mg/kg/injection, schedule: Q01DX009 (ip), vehicle: Klucel (hydroxypropylcellulose) (HPC)): 101 % of control
T/C (dose: 35.0 mg/kg/injection, schedule: Q01DX009 (ip), vehicle: Klucel (hydroxypropylcellulose) (HPC)): 96 % of control
T/C (dose: 70.0 mg/kg/injection, schedule: Q01DX009 (ip), vehicle: Klucel (hydroxypropylcellulose) (HPC)): 97 % of control
T/C (dose: 75.0 mg/kg/injection, schedule: Q01DX009 (ip), vehicle: Klucel (hydroxypropylcellulose) (HPC)): 103 % of control
T/C (dose: 150.0 mg/kg/injection, schedule: Q01DX009 (ip), vehicle: Klucel (hydroxypropylcellulose) (HPC)): 97 % of control
T/C (dose: 300.0 mg/kg/injection, schedule: Q01DX009 (ip), vehicle: Klucel (hydroxypropylcellulose) (HPC)): 92 % of control

CS(=O)(=O)Nc1ccc(Nc2c3ccccc3nc3ccccc23)cc1
T/C (dose: 10.0 mg/kg/injection, schedule: Q01DX009 (sc), vehicle: saline): 108 % of control
T/C (dose: 12.5 mg/kg/injection, schedule: Q01DX001 (ip), vehicle: saline): 101 % of control
T/C (dose: 20.0 mg/kg/injection, schedule: Q01DX009 (ip), vehicle: saline): 161 % of control
T/C (dose: 20.0 mg/kg/injection, schedule: Q01DX009 (sc), vehicle: saline): 116 % of control
T/C (dose: 25.0 mg/kg/injection, schedule: Q01DX001 (ip), vehicle: saline): 119 % of control
T/C (dose: 40.0 mg/kg/injection, schedule: Q01DX009 (ip), vehicle: saline): 107 % of control
T/C (dose: 50.0 mg/kg/injection, schedule: Q01DX001 (ip), vehicle: saline): 104 % of control
T/C (dose: 117.0 mg/kg/injection, schedule: Q01DX009 (ip), vehicle: carboxymethylcellulose (CMC)): 97 % of control
T/C (dose: 176.0 mg/kg/injection, schedule: Q01DX001 (ip), vehicle: carboxymethylcellulose (CMC)): 151 % of control
T/C (dose: 176.0 mg/kg/injection, schedule: Q01DX009 (ip), vehicle: carboxymethylcellulose (CMC)): 100 % of control
T/C (dose: 240.0 mg/kg/injection, schedule: Q04DX003 (ip), vehicle: Klucel (hydroxypropylcellulose) (HPC)): 156 % of control
T/C (dose: 264.0 mg/kg/injection, schedule: Q01DX001 (ip), vehicle: carboxymethylcellulose (CMC)): 161 % of control
T/C (dose: 266.0 mg/kg/injection, schedule: Q01DX001 (ip), vehicle: carboxymethylcellulose (CMC)): 158 % of control
T/C [1]: 150 % of control
T/C (dose: 600.0 mg/kg/injection, schedule: Q01DX001 (ip), vehicle: carboxymethylcellulose (CMC)): 179 % of control and 253 % of control

CC12c3ccccc3C(c3ccccc31)C1C(=O)OC(=O)C12 (stereo not given)
T/C [2]: 98 % of control
T/C (dose: 100.0 mg/kg/injection, schedule: Q04DX003 (ip), vehicle: saline with Tween-80): 90 % of control
T/C [3]: 96 % of control
T/C [4]: 92 % of control
T/C [1]: 93 % of control

Cc1cccnc1NC(=S)Nc1cccc(C(F)(F)F)c1
T/C [5]: 95 % of control
T/C [6]: 95 % of control
T/C [7]: 92 % of control

CC1C(=O)C2(C)C3(C)C(=O)C(C)(C(c4ccccc4)=C3c3ccccc3)C2(c2ccccc2)C1c1ccccc1 (stereo not given) (tested in a mixture with another compound)
T/C [8]: 98 % of control
T/C [9]: 95 % of control
T/C [10]: 95 % of control

COC(=S)Nc1cccc(OC(=O)NC(C)C)c1
T/C [11]: 97 % of control
T/C [12]: 95 % of control
T/C [13]: 100 % of control

Cc1c(Cl)cccc1NC(=O)Nc1cccc2c(O)cccc12
T/C [8]: 92 % of control
T/C [11]: 89 % of control
T/C [14]: 86 % of control and 89 % of control
T/C [12]: 90 % of control
T/C [15]: 86 % of control and 91 % of control
T/C [4]: 88 % of control
T/C [13]: 89 % of control
T/C (dose: 400.0 mg/kg/injection, schedule: Q01DX009 (ip), vehicle: saline with Tween-80): 94 % of control and 87 % of control
T/C [16]: 87 % of control and 89 % of control

O=C(COc1ccc(Cl)cc1)Nc1ccc(S(=O)(=O)O)c2ccccc12
T/C [5]: 98 % of control
T/C [6]: 98 % of control
T/C [7]: 98 % of control

CCCCNC(N)=S
T/C [17]: 98 % of control
T/C [18]: 104 % of control
T/C [19]: 102 % of control

CC(=O)OC1CCC2(C)C3CCC4(C)C(OC(=O)c5ccccc5)CCC4C3C3C(=O)OC32C1 (stereo not given)
T/C [17]: 95 % of control
T/C [18]: 95 % of control
T/C [19]: 95 % of control

Cc1cccc(NC(=O)c2cccc([N+](=O)[O-])c2C(=O)O)c1C
T/C [5]: 103 % of control
T/C [6]: 103 % of control
T/C [7]: 103 % of control

CC(C)(C)c1ccc(-c2nnc(-c3ccc(-c4ccccc4)cc3)o2)cc1
T/C [17]: 95 % of control
T/C [18]: 92 % of control
T/C [19]: 90 % of control

Cc1[nH]c2ccccc2c1C(c1cc(Cl)cc(Cl)c1O)c1c(C)[nH]c2ccccc12
T/C [14]: 87 % of control
T/C [15]: 94 % of control
T/C [16]: 91 % of control

CCCCCCCCCCCC(=O)NC(=S)Nc1ccc([N+](=O)[O-])cc1C
T/C [17]: 88 % of control
T/C [18]: 86 % of control
T/C [19]: 90 % of control

O=C(Sc1ccccc1)n1nc(Cl)c2ccc([N+](=O)[O-])cc21
T/C (dose: 100.0 mg/kg/injection, schedule: Q01DX001 (ip), vehicle: saline): 94 % of control
T/C (dose: 200.0 mg/kg/injection, schedule: Q01DX001 (ip), vehicle: saline): 94 % of control
T/C (dose: 400.0 mg/kg/injection, schedule: Q01DX001 (ip), vehicle: saline): 90 % of control

C/C(=C/c1c(C)cc(C)c(NC(=O)c2ccc([N+](=O)[O-])cc2)c1C)CBr
T/C (dose: 100.0 mg/kg/injection, schedule: Q01DX001 (ip), vehicle: Klucel (hydroxypropylcellulose) (HPC)): 93 % of control
T/C [17]: 97 % of control
T/C (dose: 200.0 mg/kg/injection, schedule: Q01DX001 (ip), vehicle: Klucel (hydroxypropylcellulose) (HPC)): 102 % of control
T/C [18]: 92 % of control
T/C (dose: 400.0 mg/kg/injection, schedule: Q01DX001 (ip), vehicle: Klucel (hydroxypropylcellulose) (HPC)): 96 % of control
T/C [19]: 92 % of control

CSc1ncc(C=O)c(N)n1
T/C [9]: 100 % of control
T/C [10]: 96 % of control

O=C(O/C(=N\N1N=NC(c2ccccc2)C1c1ccccc1)c1ccccc1)c1ccccc1 (stereo not given)
T/C [2]: 87 % of control
T/C [3]: 89 % of control
T/C [1]: 89 % of control

CC1=N/C(=N\c2nc3ccccc3[nH]2)NC(=O)CC1
T/C (dose: 75.0 mg/kg/injection, schedule: Q01DX001 (ip), vehicle: saline): 101 % of control
T/C (dose: 150.0 mg/kg/injection, schedule: Q01DX001 (ip), vehicle: saline): 93 % of control

Cn1c(/N=C/c2ccc([N+](=O)[O-])cc2)c(N)c(=O)n(C)c1=O
T/C (dose: 50.0 mg/kg/injection, schedule: Q01DX001 (ip), vehicle: carboxymethylcellulose (CMC)): 90 % of control
T/C [2]: 93 % of control
T/C [3]: 88 % of control
T/C [1]: 88 % of control

Source: PubChem BioAssay AID248 (DTP/NCI, 2004)
